Measurements from PubChem BioAssay AID2060498 (Molecular Pharmacology Branch, DTP, NCI, 2025).

Test system: 171881-019-R-J1-PDC tumor spheroids, viability
Assay: Anticancer human tumor 171881-019-R-J1-PDC patient-derived invasive breast carcinoma cell line growth inhibition [GQUAD]
Conditions: spheroids with HUVEC and MSC; for IC50: curve of first compound; for viability, T/C: stronger effect = lower value
How it was run: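 Tumor cells were grown as complex spheroids with HUVEC endothelial cells and mesenchymal stem cells as stroma. G-quadruplex stabilizers were combined with targeted agents over half-log dilutions from near the clinical Cmax, or from 10 microM.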

[1] = second compound 0.0316 µM, first compound 0.0316 µM
[2] = second compound 0.0316 µM, first compound 0.1 µM
[3] = second compound 0.0316 µM, first compound 0.316 µM
[4] = second compound 0.0316 µM, first compound 1 µM
[5] = second compound 0.0316 µM, first compound 3.16 µM
[6] = second compound 0.0316 µM, first compound 10 µM
[7] = second compound 0.1 µM, first compound 0.0316 µM
[8] = second compound 0.1 µM, first compound 0.1 µM
[9] = second compound 0.1 µM, first compound 0.316 µM
[10] = second compound 0.1 µM, first compound 1 µM
[11] = second compound 0.1 µM, first compound 3.16 µM
[12] = second compound 0.1 µM, first compound 10 µM
[13] = second compound 0.316 µM, first compound 0.0316 µM
[14] = second compound 0.316 µM, first compound 0.1 µM
[15] = second compound 0.316 µM, first compound 0.316 µM
[16] = second compound 0.316 µM, first compound 1 µM
[17] = second compound 0.316 µM, first compound 3.16 µM
[18] = second compound 0.316 µM, first compound 10 µM
[19] = second compound 1 µM, first compound 0.0316 µM
[20] = second compound 1 µM, first compound 0.1 µM
[21] = second compound 1 µM, first compound 0.316 µM
[22] = second compound 1 µM, first compound 1 µM
[23] = second compound 1 µM, first compound 3.16 µM
[24] = second compound 1 µM, first compound 10 µM
[25] = second compound 3.16 µM, first compound 0.0316 µM
[26] = second compound 3.16 µM, first compound 0.1 µM
[27] = second compound 3.16 µM, first compound 0.316 µM
[28] = second compound 3.16 µM, first compound 1 µM
[29] = second compound 3.16 µM, first compound 3.16 µM
[30] = second compound 3.16 µM, first compound 10 µM
[31] = second compound 10 µM, first compound 0.0316 µM
[32] = second compound 10 µM, first compound 0.1 µM
[33] = second compound 10 µM, first compound 0.316 µM
[34] = second compound 10 µM, first compound 1 µM
[35] = second compound 10 µM, first compound 3.16 µM
[36] = second compound 10 µM, first compound 10 µM
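Also: spheroids exposed to compounds for 7 days.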
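For viability, T/C in this document: 100% = DMSO vehicle control viability.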

Work on `C=CCn1c(=O)c2cnc(Nc3ccc(N4CCN(C)CC4)cc3)nc2n1-c1cccc(C(C)(C)O)n1` + Cc1[nH]c2ccc(F)cc2c1-c1nc2c3cccnc3c3ncccc3c2[nH]1 yielded an IC50 (second compound 0.0316 µM) of 0.624 µM, an IC50 (second compound 0.1 µM) of 0.592 µM and an IC50 (second compound 0.316 µM) of 0.37 µM. For the same compound, the IC50 (second compound 1 µM) was 0.132 µM, the IC50 (second compound 3.16 µM) was less than 0.0316 µM and the IC50 (second compound 10 µM) was less than 0.0316 µM. It also gave a viability, T/C [1] of 91.2%, a viability, T/C [2] of 94% and a viability, T/C [3] of 77%. It also gave a viability, T/C [4] of 31.3%, a viability, T/C [5] of 21.4% and a viability, T/C [6] of 23.4%. For the same compound, the viability, T/C [7] was 103%, the viability, T/C [8] was 86% and the viability, T/C [9] was 68.1%. It also gave a viability, T/C [10] of 36.7%, a viability, T/C [11] of 20.5% and a viability, T/C [12] of 23.2%. For the same compound, the viability, T/C [13] was 78.3%, the viability, T/C [14] was 65.4% and the viability, T/C [15] was 56%. For the same compound, the viability, T/C [16] was 28.1%, the viability, T/C [17] was 23.1% and the viability, T/C [18] was 25%. The viability, T/C [19] was 68.1%, the viability, T/C [20] was 51.4% and the viability, T/C [21] was 42.5%. For the same compound, the viability, T/C [22] was 25.5%, the viability, T/C [23] was 23.4% and the viability, T/C [24] was 21.3%. The viability, T/C [25] was 11.4%, the viability, T/C [26] was 5.61% and the viability, T/C [27] was 5.52%. For the same compound, the viability, T/C [28] was 4.19%, the viability, T/C [29] was 5.08% and the viability, T/C [30] was 4.35%. It also gave a viability, T/C [31] of 43.9%, a viability, T/C [32] of 30.7% and a viability, T/C [33] of 23.1%. It also gave a viability, T/C [34] of 17.5%, a viability, T/C [35] of 15.7% and a viability, T/C [36] of 13.6%.

In the case of `COc1ncnc(C2CC2)c1-c1ncc2cnn(Cc3ccc(-c4nc(C(F)(F)F)cn4C(C)C)cc3)c2n1` + Cc1[nH]c2ccc(F)cc2c1-c1nc2c3cccnc3c3ncccc3c2[nH]1, the IC50 (second compound 0.0316 µM) is reported as greater than 10 µM, the IC50 (second compound 0.1 µM) is reported as greater than 10 µM and the IC50 (second compound 0.316 µM) is reported as greater than 10 µM. The IC50 (second compound 1 µM) was greater than 10 µM, the IC50 (second compound 3.16 µM) was less than 0.0316 µM and the IC50 (second compound 10 µM) was less than 0.0316 µM. For the same compound, the viability, T/C [1] was 88.4%, the viability, T/C [2] was 93.6% and the viability, T/C [3] was 97.8%. For the same compound, the viability, T/C [4] was 104%, the viability, T/C [5] was 90.5% and the viability, T/C [6] was 88.4%. The viability, T/C [7] was 97.5%, the viability, T/C [8] was 87.9% and the viability, T/C [9] was 99.1%. For the same compound, the viability, T/C [10] was 98.8%, the viability, T/C [11] was 83.1% and the viability, T/C [12] was 81.8%. For the same compound, the viability, T/C [13] was 71.4%, the viability, T/C [14] was 74.2% and the viability, T/C [15] was 75.4%. The viability, T/C [16] was 72%, the viability, T/C [17] was 72.3% and the viability, T/C [18] was 62.7%. For the same compound, the viability, T/C [19] was 65.1%, the viability, T/C [20] was 54.2% and the viability, T/C [21] was 59.4%. For the same compound, the viability, T/C [22] was 60.3%, the viability, T/C [23] was 71.1% and the viability, T/C [24] was 60.3%. The viability, T/C [25] was 8.81%, the viability, T/C [26] was 4.91% and the viability, T/C [27] was 7.33%. For the same compound, the viability, T/C [28] was 8.01%, the viability, T/C [29] was 11.8% and the viability, T/C [30] was 6.52%. For the same compound, the viability, T/C [31] was 40.8%, the viability, T/C [32] was 38.5% and the viability, T/C [33] was 30.7%. It also gave a viability, T/C [34] of 50%, a viability, T/C [35] of 42.6% and a viability, T/C [36] of 35.2%.

Work on `CC1COCCN1c1cc(C2(S(C)(=N)=O)CC2)nc(-c2ccnc3[nH]ccc23)n1` (stereo not drawn) + Cc1cnc(CNC(=O)c2c(=O)c3ccc(N4CCCN(C)CC4)nc3n3c2sc2ccccc23)cn1 yielded an IC50 (second compound 0.0316 µM) of 1.04 µM, an IC50 (second compound 0.1 µM) of 1.05 µM and an IC50 (second compound 0.316 µM) of 0.755 µM. The IC50 (second compound 1 µM) was 1.12 µM, the IC50 (second compound 3.16 µM) was 1.04 µM and the IC50 (second compound 10 µM) was 1.11 µM. For the same compound, the viability, T/C [1] was 93.8%, the viability, T/C [2] was 82.8% and the viability, T/C [3] was 90.7%. The viability, T/C [4] was 50.8%, the viability, T/C [5] was 15.5% and the viability, T/C [6] was 9.59%. For the same compound, the viability, T/C [7] was 87.5%, the viability, T/C [8] was 87.8% and the viability, T/C [9] was 74.1%. It also gave a viability, T/C [10] of 53.9%, a viability, T/C [11] of 18.7% and a viability, T/C [12] of 10.7%. The viability, T/C [13] was 74.9%, the viability, T/C [14] was 80.5% and the viability, T/C [15] was 63.5%. The viability, T/C [16] was 45.7%, the viability, T/C [17] was 21.7% and the viability, T/C [18] was 11.2%. For the same compound, the viability, T/C [19] was 67.6%, the viability, T/C [20] was 61.5% and the viability, T/C [21] was 68.7%. The viability, T/C [22] was 50.3%, the viability, T/C [23] was 28.7% and the viability, T/C [24] was 13.6%. The viability, T/C [25] was 61.9%, the viability, T/C [26] was 56.9% and the viability, T/C [27] was 58.7%. The viability, T/C [28] was 50.3%, the viability, T/C [29] was 35.1% and the viability, T/C [30] was 17.1%. It also gave a viability, T/C [31] of 57.5%, a viability, T/C [32] of 64.1% and a viability, T/C [33] of 57.2%. The viability, T/C [34] was 51.9%, the viability, T/C [35] was 33% and the viability, T/C [36] was 16.2%.

In the case of `COc1ccc([C@@H](O)c2cc(-c3ncnc4cc(N5CCOCC5)ccc34)c(F)cc2Cl)nn1` + Cc1cnc(CNC(=O)c2c(=O)c3ccc(N4CCCN(C)CC4)nc3n3c2sc2ccccc23)cn1, the IC50 (second compound 0.0316 µM) is reported as 0.405 µM, the IC50 (second compound 0.1 µM) is reported as 0.268 µM and the IC50 (second compound 0.316 µM) is reported as 0.169 µM. It also gave an IC50 (second compound 1 µM) of 0.169 µM, an IC50 (second compound 3.16 µM) of 0.112 µM and an IC50 (second compound 10 µM) of 0.103 µM. For the same compound, the viability, T/C [1] was 93.2%, the viability, T/C [2] was 77.1% and the viability, T/C [3] was 60.5%. For the same compound, the viability, T/C [4] was 22.4%, the viability, T/C [5] was 9.13% and the viability, T/C [6] was 5.12%. For the same compound, the viability, T/C [7] was 75.6%, the viability, T/C [8] was 76% and the viability, T/C [9] was 43.7%. For the same compound, the viability, T/C [10] was 19.1%, the viability, T/C [11] was 8.81% and the viability, T/C [12] was 4.57%. The viability, T/C [13] was 73.1%, the viability, T/C [14] was 58% and the viability, T/C [15] was 40.5%. For the same compound, the viability, T/C [16] was 17%, the viability, T/C [17] was 9.34% and the viability, T/C [18] was 6.36%. It also gave a viability, T/C [19] of 64.9%, a viability, T/C [20] of 56.8% and a viability, T/C [21] of 41.8%. It also gave a viability, T/C [22] of 18%, a viability, T/C [23] of 10.8% and a viability, T/C [24] of 4.62%. For the same compound, the viability, T/C [25] was 60.7%, the viability, T/C [26] was 49.4% and the viability, T/C [27] was 39.4%. For the same compound, the viability, T/C [28] was 18.9%, the viability, T/C [29] was 11.2% and the viability, T/C [30] was 4.88%. The viability, T/C [31] was 53.8%, the viability, T/C [32] was 52.3% and the viability, T/C [33] was 37.8%. It also gave a viability, T/C [34] of 21.7%, a viability, T/C [35] of 11.8% and a viability, T/C [36] of 4.99%.
